What was measured:
[1] = biological target: T1, human recombinant adrenergic α1D receptor (Homo sapiens, UniProt P25100); assay: Radioligand binding, adrenergic α1D ([3H]Prazosin)
T1 construct: expressed in transfected cells; host or cells: HEK-293
T1 sequence (P25100 1-572): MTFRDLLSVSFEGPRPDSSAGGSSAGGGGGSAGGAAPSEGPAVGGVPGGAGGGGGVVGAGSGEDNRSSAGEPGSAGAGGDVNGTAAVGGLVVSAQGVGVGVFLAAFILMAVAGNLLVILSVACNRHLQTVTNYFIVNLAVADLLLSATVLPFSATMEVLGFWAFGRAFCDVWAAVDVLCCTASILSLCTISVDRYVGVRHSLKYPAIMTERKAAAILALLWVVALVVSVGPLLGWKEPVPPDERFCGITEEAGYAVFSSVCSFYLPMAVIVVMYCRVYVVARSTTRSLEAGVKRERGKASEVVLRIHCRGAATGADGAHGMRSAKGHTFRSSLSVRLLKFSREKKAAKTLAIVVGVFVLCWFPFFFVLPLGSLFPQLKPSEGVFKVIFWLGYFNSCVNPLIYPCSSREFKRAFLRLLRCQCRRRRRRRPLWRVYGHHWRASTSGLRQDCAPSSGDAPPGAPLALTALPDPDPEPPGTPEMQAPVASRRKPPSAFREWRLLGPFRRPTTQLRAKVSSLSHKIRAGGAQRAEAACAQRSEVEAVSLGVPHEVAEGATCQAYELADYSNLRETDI

[2] = biological target: T2, human Adrenergic a2A receptor (Homo sapiens, UniProt P08913); assay: Inverse agonist activity, GTPg35S binding functional assay (FAST-006G); assay type: biochemical; conditions: dose-response, duplicates (FIG. 28)
T2 construct: purchased Euroscreen FAST-006G
T2 sequence (P08913 1-465): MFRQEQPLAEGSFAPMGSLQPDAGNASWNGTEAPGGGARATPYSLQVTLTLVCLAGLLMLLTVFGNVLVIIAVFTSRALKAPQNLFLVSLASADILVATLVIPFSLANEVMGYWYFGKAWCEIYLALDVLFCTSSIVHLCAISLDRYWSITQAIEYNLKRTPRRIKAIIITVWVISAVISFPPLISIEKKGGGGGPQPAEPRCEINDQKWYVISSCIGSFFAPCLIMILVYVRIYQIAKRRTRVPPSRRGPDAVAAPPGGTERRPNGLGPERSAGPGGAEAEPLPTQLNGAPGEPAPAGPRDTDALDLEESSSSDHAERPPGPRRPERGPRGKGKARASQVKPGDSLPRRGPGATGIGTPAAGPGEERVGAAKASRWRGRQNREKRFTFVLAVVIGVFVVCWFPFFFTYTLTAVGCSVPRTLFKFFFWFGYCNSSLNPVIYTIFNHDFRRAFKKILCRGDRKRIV
Method: SPA 35S-GTPgS and Radioligand Binding experiments were conducted with Euroscreen membrane preparations. Compound was tested for inverse agonist activity at the human Adrenergic a2A receptor using GTPg35S binding functional assay (FAST-006G) in dose-response and in duplicates.

Ki [1]	inverse agonist activity [2]	SMILES
258 nM	–	Cc1ccc2c(c1)c1c(n2CC(O)c2ccncc2)CCN(C)C1 (single isomer, unassigned) [3b]
–	showed inverse agonist activity	Cc1ccc2c(c1)c1c(n2CC(O)c2ccncc2)CCN2CCCC12 (single isomer, unassigned) [129d]

Source: patent publication US8791132B2, “Compounds and methods for treatment of hypertension” (Medivation Technologies, Inc., priority 2011, dated 2014)
